Results published in publication PMC8429728, “TNK1 is a ubiquitin-binding and 14-3-3-regulated kinase that can be targeted to block tumor growth” (Nature Communications, 2021).
Read-outs that look alike come from different tables or passages of the source.

How the values were obtained:
Assay in all cases: biochemical
Set-up in all cases: Reaction Biology 371-kinase panel at Km ATP, per cent enzyme activity relative to DMSO, single dose in duplicate
IRR/INSRR = IRR/INSRR (Homo sapiens, UniProt P14616); details: duplicate measurements, Km ATP
Protocol: (§1) To assess kinase selectivity, we screened TP-5801 (300 nM) against a panel of 371 kinases in vitro. […] In addition to TNK1, only 7 other kinases were inhibited by more than 90% (Supplementary Fig. 8 and Supplementary Data 2). […] The resulting % Enzyme activity (relative to DMSO controls) were plotted in GraphPad and IC50 values were determined by sigmoidal dose-response (variable slope) curve fits, with a bottom constraint of 0.

WNK2 = WNK2 (Homo sapiens, UniProt Q9Y3S1); details: duplicate measurements, Km ATP
Protocol: as §1

Aurora A = biological target: T1, Aurora A (Homo sapiens, UniProt O14965); details: duplicate measurements, Km ATP
T1 construct: gene AURKA
T1 sequence (O14965 1-403): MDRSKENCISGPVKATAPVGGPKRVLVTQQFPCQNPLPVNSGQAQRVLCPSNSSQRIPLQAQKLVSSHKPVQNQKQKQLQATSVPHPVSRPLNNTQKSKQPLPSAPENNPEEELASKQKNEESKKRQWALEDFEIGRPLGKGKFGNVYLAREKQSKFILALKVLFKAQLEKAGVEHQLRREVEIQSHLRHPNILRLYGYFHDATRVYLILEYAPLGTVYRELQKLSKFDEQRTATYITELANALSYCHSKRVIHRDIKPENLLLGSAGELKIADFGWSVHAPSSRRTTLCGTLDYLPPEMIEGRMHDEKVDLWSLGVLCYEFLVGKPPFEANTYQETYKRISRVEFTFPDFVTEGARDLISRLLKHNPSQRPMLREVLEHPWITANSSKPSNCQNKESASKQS
Protocol: as §1

MLCK2/MYLK2 = MLCK2/MYLK2 (Homo sapiens, UniProt Q9H1R3); details: duplicate measurements, Km ATP
Protocol: as §1

CDK14/cyclin Y (PFTK1) = CDK14/cyclin Y (PFTK1) (Homo sapiens, UniProt O94921); details: duplicate measurements, Km ATP
Protocol: as §1

ALK2/ACVR1 = ALK2/ACVR1 (Homo sapiens, UniProt Q04771); details: duplicate measurements, Km ATP; read-out: % Enzyme Activity (relative to DMSO controls) / TP-0005801 (0.3µM) / Data 1
Protocol: as §1

EGFR = EGFR (Homo sapiens, UniProt P00533); details: duplicate measurements, Km ATP
Protocol: as §1

PAK3 = PAK3 (Homo sapiens, UniProt O75914); details: duplicate measurements, Km ATP
Protocol: as §1

PLK3 = PLK3 (Homo sapiens, UniProt Q9H4B4); details: duplicate measurements, Km ATP
Protocol: as §1

CDK18/cyclin Y (PCTK3) = CDK18/cyclin Y (PCTK3) (Homo sapiens, UniProt Q07002); details: duplicate measurements, Km ATP
Protocol: as §1

FGFR2 = FGFR2 (Homo sapiens, UniProt P21802); details: duplicate measurements, Km ATP
Protocol: as §1

PIM1 = PIM1 (Homo sapiens, UniProt P11309); details: duplicate measurements, Km ATP
Protocol: as §1

NEK3 = NEK3 (Homo sapiens, UniProt P51956); details: duplicate measurements, Km ATP
Protocol: as §1

BTK = BTK (Homo sapiens, UniProt Q06187); details: duplicate measurements, Km ATP
Protocol: as §1

[1] = read-out: % Enzyme Activity (relative to DMSO controls) / TP-0005801 (0.3µM) / Data 1
[2] = read-out: % Enzyme Activity (relative to DMSO controls) / TP-0005801 (0.3µM) / Data 2

CDK18/cyclin Y (PCTK3), sequence (Q07002 whole entry): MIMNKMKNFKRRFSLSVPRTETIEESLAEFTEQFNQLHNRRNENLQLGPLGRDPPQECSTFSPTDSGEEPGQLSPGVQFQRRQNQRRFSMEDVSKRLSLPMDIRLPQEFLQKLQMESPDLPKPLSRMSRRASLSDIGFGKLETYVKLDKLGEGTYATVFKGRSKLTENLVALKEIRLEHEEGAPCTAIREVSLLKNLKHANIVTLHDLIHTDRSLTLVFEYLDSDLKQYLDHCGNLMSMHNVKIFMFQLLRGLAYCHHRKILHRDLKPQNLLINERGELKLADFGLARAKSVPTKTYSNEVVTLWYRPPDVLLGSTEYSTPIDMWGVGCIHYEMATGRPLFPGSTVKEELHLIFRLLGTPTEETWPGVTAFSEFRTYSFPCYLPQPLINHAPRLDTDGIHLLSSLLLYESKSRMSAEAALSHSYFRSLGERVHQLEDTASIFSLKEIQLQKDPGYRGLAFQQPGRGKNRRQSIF
CDK18/cyclin Y (PCTK3), sequence (Q8ND76 whole entry partner): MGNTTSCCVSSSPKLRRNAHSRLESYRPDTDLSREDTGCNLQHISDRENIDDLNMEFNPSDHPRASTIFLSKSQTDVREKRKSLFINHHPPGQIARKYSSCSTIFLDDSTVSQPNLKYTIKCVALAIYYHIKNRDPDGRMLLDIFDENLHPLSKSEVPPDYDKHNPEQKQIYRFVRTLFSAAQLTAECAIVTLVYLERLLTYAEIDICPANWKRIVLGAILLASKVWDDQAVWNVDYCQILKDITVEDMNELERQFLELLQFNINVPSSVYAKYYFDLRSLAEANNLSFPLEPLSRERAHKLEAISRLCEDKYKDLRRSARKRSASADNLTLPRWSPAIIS
BTK, sequence (Q06187 whole entry): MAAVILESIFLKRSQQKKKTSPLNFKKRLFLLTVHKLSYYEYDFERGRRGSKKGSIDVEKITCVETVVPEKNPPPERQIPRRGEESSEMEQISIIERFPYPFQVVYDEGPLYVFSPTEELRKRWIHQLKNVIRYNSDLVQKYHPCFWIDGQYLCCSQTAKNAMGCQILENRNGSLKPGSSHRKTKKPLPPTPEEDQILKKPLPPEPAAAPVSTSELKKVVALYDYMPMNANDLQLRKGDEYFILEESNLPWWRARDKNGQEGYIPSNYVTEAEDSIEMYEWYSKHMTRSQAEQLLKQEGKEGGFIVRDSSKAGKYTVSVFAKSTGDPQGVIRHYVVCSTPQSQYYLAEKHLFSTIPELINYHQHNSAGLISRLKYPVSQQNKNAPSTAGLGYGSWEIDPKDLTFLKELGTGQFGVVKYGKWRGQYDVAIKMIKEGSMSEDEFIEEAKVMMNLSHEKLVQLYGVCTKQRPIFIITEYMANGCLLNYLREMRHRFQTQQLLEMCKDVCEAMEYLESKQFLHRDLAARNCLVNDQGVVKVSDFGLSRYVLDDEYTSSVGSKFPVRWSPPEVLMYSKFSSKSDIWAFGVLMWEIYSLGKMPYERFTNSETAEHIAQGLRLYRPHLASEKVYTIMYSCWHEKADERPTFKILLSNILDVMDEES
PAK3, sequence (O75914 whole entry): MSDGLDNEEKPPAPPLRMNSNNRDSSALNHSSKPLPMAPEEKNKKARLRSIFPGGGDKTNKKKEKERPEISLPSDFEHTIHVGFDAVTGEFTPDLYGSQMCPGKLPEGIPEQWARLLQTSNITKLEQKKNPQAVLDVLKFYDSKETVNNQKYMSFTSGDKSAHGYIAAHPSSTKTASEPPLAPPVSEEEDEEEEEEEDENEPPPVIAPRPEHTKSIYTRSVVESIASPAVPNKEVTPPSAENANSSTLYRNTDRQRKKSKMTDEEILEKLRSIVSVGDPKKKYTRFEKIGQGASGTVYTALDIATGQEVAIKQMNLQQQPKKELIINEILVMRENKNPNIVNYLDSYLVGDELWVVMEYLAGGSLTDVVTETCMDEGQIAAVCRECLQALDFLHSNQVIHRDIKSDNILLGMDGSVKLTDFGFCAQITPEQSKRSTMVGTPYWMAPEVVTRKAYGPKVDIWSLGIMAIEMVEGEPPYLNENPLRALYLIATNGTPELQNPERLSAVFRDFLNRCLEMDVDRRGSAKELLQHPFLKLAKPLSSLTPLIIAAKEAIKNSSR
FGFR2, sequence (P21802 whole entry): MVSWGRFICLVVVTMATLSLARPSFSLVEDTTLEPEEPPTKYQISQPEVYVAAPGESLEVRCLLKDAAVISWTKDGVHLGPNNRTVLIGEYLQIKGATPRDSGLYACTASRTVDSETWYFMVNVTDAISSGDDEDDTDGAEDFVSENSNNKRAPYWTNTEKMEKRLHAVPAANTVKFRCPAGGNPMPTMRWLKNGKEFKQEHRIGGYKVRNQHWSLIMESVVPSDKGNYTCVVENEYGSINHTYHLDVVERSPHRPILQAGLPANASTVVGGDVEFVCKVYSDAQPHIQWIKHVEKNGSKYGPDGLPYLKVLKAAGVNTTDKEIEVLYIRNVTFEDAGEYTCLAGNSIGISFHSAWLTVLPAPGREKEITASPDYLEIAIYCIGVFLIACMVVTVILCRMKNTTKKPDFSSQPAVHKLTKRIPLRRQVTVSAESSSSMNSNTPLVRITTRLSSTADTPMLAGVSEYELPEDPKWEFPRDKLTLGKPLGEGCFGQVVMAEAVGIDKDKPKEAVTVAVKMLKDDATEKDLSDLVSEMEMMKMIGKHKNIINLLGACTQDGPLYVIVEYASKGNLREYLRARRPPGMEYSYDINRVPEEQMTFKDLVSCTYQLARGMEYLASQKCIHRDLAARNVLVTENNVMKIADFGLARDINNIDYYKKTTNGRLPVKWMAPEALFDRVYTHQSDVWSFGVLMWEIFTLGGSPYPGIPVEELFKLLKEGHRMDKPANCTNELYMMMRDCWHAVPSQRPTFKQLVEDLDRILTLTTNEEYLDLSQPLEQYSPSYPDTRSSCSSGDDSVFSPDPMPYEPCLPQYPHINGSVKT
IRR/INSRR, sequence (P14616 whole entry): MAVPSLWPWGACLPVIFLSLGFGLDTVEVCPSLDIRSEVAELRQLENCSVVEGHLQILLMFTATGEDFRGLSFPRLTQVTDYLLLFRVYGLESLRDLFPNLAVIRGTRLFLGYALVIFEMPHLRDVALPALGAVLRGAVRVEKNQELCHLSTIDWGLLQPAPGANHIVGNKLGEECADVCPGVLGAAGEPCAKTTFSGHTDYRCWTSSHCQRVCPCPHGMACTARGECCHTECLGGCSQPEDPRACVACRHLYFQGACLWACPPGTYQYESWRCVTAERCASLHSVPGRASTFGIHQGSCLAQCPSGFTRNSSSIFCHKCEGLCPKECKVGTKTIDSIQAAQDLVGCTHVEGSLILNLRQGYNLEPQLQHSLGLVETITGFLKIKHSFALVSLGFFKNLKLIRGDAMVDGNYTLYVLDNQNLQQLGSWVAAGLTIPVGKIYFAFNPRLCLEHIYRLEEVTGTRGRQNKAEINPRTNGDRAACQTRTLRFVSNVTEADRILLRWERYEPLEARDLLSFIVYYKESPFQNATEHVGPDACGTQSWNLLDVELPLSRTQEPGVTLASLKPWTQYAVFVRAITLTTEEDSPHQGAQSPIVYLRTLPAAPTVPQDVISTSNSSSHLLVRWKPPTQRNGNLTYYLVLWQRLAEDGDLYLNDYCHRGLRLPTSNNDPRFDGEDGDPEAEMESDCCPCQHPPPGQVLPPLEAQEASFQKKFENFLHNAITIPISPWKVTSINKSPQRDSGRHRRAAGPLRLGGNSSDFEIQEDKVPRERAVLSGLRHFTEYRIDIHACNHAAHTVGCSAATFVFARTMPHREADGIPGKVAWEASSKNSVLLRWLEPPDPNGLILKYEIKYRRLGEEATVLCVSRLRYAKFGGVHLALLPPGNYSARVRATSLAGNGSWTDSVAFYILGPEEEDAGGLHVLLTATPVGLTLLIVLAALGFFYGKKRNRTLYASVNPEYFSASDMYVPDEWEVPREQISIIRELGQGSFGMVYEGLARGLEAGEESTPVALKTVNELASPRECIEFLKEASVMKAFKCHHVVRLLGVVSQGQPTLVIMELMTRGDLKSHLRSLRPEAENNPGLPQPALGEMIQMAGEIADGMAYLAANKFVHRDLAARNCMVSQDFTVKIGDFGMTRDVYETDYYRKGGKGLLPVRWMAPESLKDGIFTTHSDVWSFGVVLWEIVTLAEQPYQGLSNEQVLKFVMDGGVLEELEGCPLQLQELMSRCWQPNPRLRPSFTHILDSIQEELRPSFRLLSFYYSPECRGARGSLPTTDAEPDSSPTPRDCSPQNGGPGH
MLCK2/MYLK2, sequence (Q9H1R3 whole entry): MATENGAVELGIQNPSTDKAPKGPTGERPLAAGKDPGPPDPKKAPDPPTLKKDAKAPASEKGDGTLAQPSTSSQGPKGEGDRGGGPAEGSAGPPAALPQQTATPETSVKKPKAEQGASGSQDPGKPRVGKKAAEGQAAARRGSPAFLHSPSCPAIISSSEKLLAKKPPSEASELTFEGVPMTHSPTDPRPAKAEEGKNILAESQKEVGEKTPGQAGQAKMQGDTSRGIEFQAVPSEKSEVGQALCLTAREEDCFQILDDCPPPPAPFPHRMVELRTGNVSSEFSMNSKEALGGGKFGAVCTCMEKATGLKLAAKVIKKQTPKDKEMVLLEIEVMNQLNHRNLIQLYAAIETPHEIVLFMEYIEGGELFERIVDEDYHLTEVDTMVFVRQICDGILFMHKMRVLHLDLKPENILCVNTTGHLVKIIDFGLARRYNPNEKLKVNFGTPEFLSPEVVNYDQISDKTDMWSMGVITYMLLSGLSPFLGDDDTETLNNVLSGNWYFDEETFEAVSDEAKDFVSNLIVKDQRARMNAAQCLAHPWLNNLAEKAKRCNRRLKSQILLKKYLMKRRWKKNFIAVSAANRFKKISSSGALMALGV

## COc1cc(N2CCN(C)CC2)c(C)cc1Nc1ncc(Br)c(Nc2cccnc2N(C)C)n1 [TP-5801]
IRR/INSRR; [1]
  remaining activity at 0.3 µM: 66.7%
IRR/INSRR; [2]
  remaining activity at 0.3 µM: 65.2%
WNK2; [1]
  remaining activity at 0.3 µM: 96.6%
WNK2; [2]
  remaining activity at 0.3 µM: 93.9%
Aurora A; [1]
  remaining activity at 0.3 µM: 101%
Aurora A; [2]
  remaining activity at 0.3 µM: 99.6%
MLCK2/MYLK2; [1]
  remaining activity at 0.3 µM: 104%
MLCK2/MYLK2; [2]
  remaining activity at 0.3 µM: 100%
CDK14/cyclin Y (PFTK1); [1]
  remaining activity at 0.3 µM: 91.8%
CDK14/cyclin Y (PFTK1); [2]
  remaining activity at 0.3 µM: 90.2%
ALK2/ACVR1
  remaining activity at 0.3 µM: 90.6%
EGFR; [1]
  remaining activity at 0.3 µM: 97.2%
EGFR; [2]
  remaining activity at 0.3 µM: 96%
PAK3; [1]
  remaining activity at 0.3 µM: 99%
PAK3; [2]
  remaining activity at 0.3 µM: 97.9%
PLK3; [1]
  remaining activity at 0.3 µM: 109%
PLK3; [2]
  remaining activity at 0.3 µM: 102%
CDK18/cyclin Y (PCTK3); [1]
  remaining activity at 0.3 µM: 98%
CDK18/cyclin Y (PCTK3); [2]
  remaining activity at 0.3 µM: 94.2%
FGFR2; [1]
  remaining activity at 0.3 µM: 89.2%
FGFR2; [2]
  remaining activity at 0.3 µM: 87.3%
PIM1; [1]
  remaining activity at 0.3 µM: 93.2%
PIM1; [2]
  remaining activity at 0.3 µM: 92.8%
NEK3; [1]
  remaining activity at 0.3 µM: 89%
NEK3; [2]
  remaining activity at 0.3 µM: 88%
BTK; [1]
  remaining activity at 0.3 µM: 93.6%
BTK; [2]
  remaining activity at 0.3 µM: 92.1%
